43 compounds from patent publication US5331006A, “Amino acid analogs as CCK antagonists” (Warner-Lambert Company, priority 1991, dated 1994) can be followed below.

The target in the first assay is T1, CCK receptor sites (Mus musculus, UniProt P56481).
T1 construct: from tissue; host or cells: cerebral cortex membranes of male CFLP mice
T1 sequence (P56481 1-453): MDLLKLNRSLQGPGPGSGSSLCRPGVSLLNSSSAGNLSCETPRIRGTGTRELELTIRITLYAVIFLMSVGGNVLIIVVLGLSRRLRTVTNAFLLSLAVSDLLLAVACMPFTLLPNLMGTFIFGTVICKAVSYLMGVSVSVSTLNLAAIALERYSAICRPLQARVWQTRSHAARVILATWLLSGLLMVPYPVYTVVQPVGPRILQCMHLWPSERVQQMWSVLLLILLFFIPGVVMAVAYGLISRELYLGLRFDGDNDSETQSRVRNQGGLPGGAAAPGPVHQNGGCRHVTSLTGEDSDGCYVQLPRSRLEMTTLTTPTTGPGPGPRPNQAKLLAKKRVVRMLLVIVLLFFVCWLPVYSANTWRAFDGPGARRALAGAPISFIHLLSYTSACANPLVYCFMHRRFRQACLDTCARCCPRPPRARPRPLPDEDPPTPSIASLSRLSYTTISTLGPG
Description: CCK receptor binding, displacement of tritiated pentagastrin from mouse cerebral cortex membranes. To be noted: 2 nM tritiated pentagastrin, mouse cerebral cortical membranes; Ki from IC50 by Cheng-Prusoff. Details: key: IA = Inactive in respect to this binding assay. The method, then: The biological activity of compounds of the present invention was evaluated employing an initial screening test which rapidly and accurately measured the binding of the tested compound to known CCK receptor sites. […] (See Hays, et al, Neuropeptides 1:53-62, 1980; and Satuer, et al, Science 208:1155-1156, 1980.)
In this screening test the cerebral cortices taken from male CFLP mice weighing between 30 to 40 g were dissected on ice, weighed, and homogenized in 10 volumes of 50 mM Tris-HCl buffer (pH 7.4 at 0° to 4° C.). The resulting suspension was centrifuged, the supernate was discarded, and the pellet was washed by resuspension in Tris-HCl buffer followed by recentrifugation. The final pellet was resuspended in 20 volumes of […] Hepes buffer (pH 7.2 at 23° C.) containing 130 mM NaCl, […] KCl, […] MgCl2, […] EDTA, 5 mg/mL bovine albumin, and bacitracin (0.25 mg/mL).
In saturation studies, cerebral cortical membranes were incubated at 23° C. for 120 minutes in a final volume of 500 μL of Hepes incubation buffer (pH 7.2) together with 0.2-20 nM tritiated-pentagastrin (Amersham International, England).
In the displacement experiments, membranes were incubated with a single concentration (2 nM) of ligand, together with increasing concentrations of competitive test compound. In each case, the nonspecific binding was defined as that persisting in the presence of the unlabeled octapeptide CCK26-33 (10^-6 M).
Following incubation, radioactivity bound to membranes was separated from that free in solution by rapid filtration through Whatman GF/B filters and washed three times with 4 mL of ice cold Tris-HCl buffer. Filters from samples incubated with tritiated pentagastrin were placed in polyethylene vials with 4 mL of scintillation cocktail, and the radioactivity was estimated by liquid scintillation spectrometry (efficiency 47% to 52%).
The specific binding to CCK receptor sites was defined as the total bound tritiated pentagastrin minus the amount of tritiated pentagastrin bound in the presence of 10^-6 octapeptide, CCK26-33.
Saturation curves for specific tritiated pentagastrin binding to mouse cortical membranes were analyzed by the methods of Scatchard (Ann. New York Acad. Sci. 51:660-672, 1949; Hill, J. Physiol. 40:IV-VIII, 1910) to provide estimates for the maximum number of binding sites (βmax)and the equilibrium dissociation constant (Ka).
In displacement experiments, inhibition curves were analyzed by either logit-log plots or the iterative curve fitting computer program ALLFIT (DeLean, Munson, and Redbard, 1978) to provide estimates of the IC50 and nH (apparent Hill coefficient) values). IC50 values were defined as the concentration of test compound required to produce 50% inhibition of specific binding).
The inhibition constant (Ki) of the test compound was then calculated according to the Cheng-Prusoff equation: [formula] where [L] is the concentration of radiolabel and Ka is the equilibrium dissociation constant.
The Ki values for several representative compounds of the present invention are present in Table II.
The term Ki denotes the equilibrium dissociation constant of an inhibitor or competing ligand from its target. For the compound `CC(Cc1cccnc1)(NC(=O)OC1C2CC3CC(C2)CC1C3)C(=O)NCCc1ccccc1` (stereo not shown), the inhibition constant Ki result is “IA”.

Take `CC(Cc1ccc[n+]([O-])c1)(NC(=O)OC1C2CC3CC(C2)CC1C3)C(=O)NCCc1ccccc1` (stereo not shown): the inhibition constant (Ki) entry was “IA”.

Regarding `CC(Cc1cccc[n+]1[O-])(NC(=O)OC1C2CC3CC(C2)CC1C3)C(=O)NC(CO)Cc1ccccc1` (single isomer, unassigned) [drawing 20], the Ki result is listed as “IA”.

As for `CC(Cc1cccc[n+]1[O-])(NC(=O)OC1C2CC3CC(C2)CC1C3)C(=O)NC(CO)Cc1ccccc1` (single isomer, unassigned) [drawing 22 (Diast II)], the inhibition constant Ki result is “IA”.

For `CC(Cc1cccc[n+]1[O-])(NC(=O)OC1C2CC3CC(C2)CC1C3)C(=O)NCCc1ccccc1` (stereo not shown) [drawing 22 (H H H H H)], the Ki entry is “IA”.

In the case of `CC(Cc1n[nH]c2ccccc12)(NC(=O)OC1C2CC3CC(C2)CC1C3)C(=O)NCC(c1ccccc1)N1C(=O)CCC1=O` (stereo not shown) [drawing 53/drawing 54 (Diast I)], the inhibition constant Ki result is “IA”.

In the case of `Cc1[nH]cc(CC(C)(NC(=O)OC2C3CC4CC(C3)CC2C4)C(=O)NCCc2ccccc2)c1C` (stereo not shown) [drawing 56 (H H H H H)], the Ki result is “IA”.

The same assay, now with this note: 2 nM tritiated pentagastrin, mouse cerebral cortical membranes; Ki from IC50 by Cheng-Prusoff; read-out: Ki.
As to `CC(Cc1cc2c3ccccc3n(S(C)(=O)=O)c2cn1)(NC(=O)OC1C2CC3CC(C2)CC1C3)C(=O)NC(CO)Cc1ccccc1` (stereo not shown), the inhibition constant Ki was determined as 0.844 µM.

Take `CC(Cc1cc2c3ccccc3n(S(C)(=O)=O)c2cn1)(NC(=O)OC1C2CC3CC(C2)CC1C3)C(=O)NCCc1ccccc1` (stereo not shown): the Ki was determined as 1.99 µM.

Turning to `CC(Cc1cc2c(cn1)[nH]c1ccccc12)(NC(=O)OC1C2CC3CC(C2)CC1C3)C(=O)NCCc1ccccc1` (stereo not shown), the Ki turned out to be 2.17 µM.

`CC(Cc1ccccn1)(NC(=O)OC1C2CC3CC(C2)CC1C3)C(=O)NCCc1ccccc1` (stereo not shown): the inhibition constant (Ki) is 3 µM.

Regarding `CC(Cc1cc2c(cn1)[nH]c1ccccc12)(NC(=O)OC1C2CC3CC(C2)CC1C3)C(=O)NC(CO)Cc1ccccc1` (stereo not shown), the inhibitory constant (Ki) is 1.39 µM.

For the compound `CC(Cc1ccncc1)(NC(=O)OC1C2CC3CC(C2)CC1C3)C(=O)NCCc1ccccc1` (stereo not shown), the Ki worked out at 3 µM.

For the compound `CC(Cc1cnc2ccccc2c1)(NC(=O)OC1C2CC3CC(C2)CC1C3)C(=O)NCCc1ccccc1` (stereo not shown), the inhibition constant Ki amounted to 0.304 µM.

As for `CC(Cc1ccc2ccccc2n1)(NC(=O)OC1C2CC3CC(C2)CC1C3)C(=O)NCC(NC(=O)CCC(=O)O)c1ccccc1` (stereo not shown), the Ki turned out to be 0.29 µM.

For `CC(Cc1ccnc2ccccc12)(NC(=O)OC1C2CC3CC(C2)CC1C3)C(=O)NCC(NC(=O)CCC(=O)O)c1ccccc1` (stereo not shown), the Ki worked out at 0.088 µM.

Consider `CC(CC1CCc2ccccc2N1)(NC(=O)OC1C2CC3CC(C2)CC1C3)C(=O)NCC(NC(=O)CCC(=O)O)c1ccccc1` (stereo not shown), for which the Ki is 0.69 µM.

For `CC(CC1C=Cc2ccccc2N1)(NC(=O)OC1C2CC3CC(C2)CC1C3)C(=O)NCC(NC(=O)CCC(=O)O)c1ccccc1` (stereo not shown), the Ki stood at 3 µM.

As to `CC(Cc1ccncc1)(NC(=O)OC1C2CC3CC(C2)CC1C3)C(=O)NCC(NC(=O)CCC(=O)O)c1ccccc1` (stereo not shown), the Ki was found to be 0.22 µM.

As to `CN1c2ccccc2C(c2ccccc2)=NCC1CC(C)(NC(=O)OC1C2CC3CC(C2)CC1C3)C(=O)NCC(NC(=O)CCC(=O)O)c1ccccc1` (stereo not shown), the Ki is 0.29 µM.

Consider `CC(Cc1ccccn1)(NC(=O)OC1C2CC3CC(C2)CC1C3)C(=O)NC(CO)Cc1ccccc1` (single isomer, unassigned) [drawing 14 (Diast I)], for which the Ki amounted to 1 µM.

Turning to `CC(Cc1cccc2ccccc12)(NC(=O)OC1C2CC3CC(C2)CC1C3)C(=O)NC(CO)Cc1ccccc1` (stereo not shown) [drawing 24], the inhibition constant (Ki) amounted to 0.72 µM.

Turning to `CC(Cc1cccc2ccccc12)(NC(=O)OC1C2CC3CC(C2)CC1C3)C(=O)NC(CO)Cc1ccccc1` (stereo not shown) [drawing 26], the inhibition constant Ki is 0.014 µM.

On to `CC(Cc1coc2ccccc12)(NC(=O)OC1C2CC3CC(C2)CC1C3)C(=O)NC(CO)Cc1ccccc1` (stereo not shown) [drawing 27 (H H CH2 OH H H)], for which the Ki came to 0.36 µM.

For `CC(Cc1coc2ccccc12)(NC(=O)OC1C2CC3CC(C2)CC1C3)C(=O)NCCc1ccccc1` (stereo not shown) [drawing 27 (H H H H H)], the inhibition constant (Ki) turned out to be 0.99 µM.

Turning to `CC(Cc1c(Br)oc2ccccc12)(NC(=O)OC1C2CC3CC(C2)CC1C3)C(=O)NC(CO)Cc1ccccc1` (stereo not shown) [drawing 28 (H H CH2 OH H H)], the Ki is 0.014 µM.

On to `CC(Cc1c(Br)oc2ccccc12)(NC(=O)OC1C2CC3CC(C2)CC1C3)C(=O)NCCc1ccccc1` (stereo not shown) [drawing 28 (H H H H H)], for which the inhibitory constant (Ki) is 1.28 µM.

`CC(Cc1cccnc1)(NC(=O)OC1C2CC3CC(C2)CC1C3)C(=O)N[C@H](CO)Cc1ccccc1` (stereo partly shown) [drawing 32 (Diast I)]: the Ki turned out to be 0.7 µM.

Consider `CC(C)COC(=O)OC[C@H](Cc1ccccc1)NC(=O)C(C)(Cc1cccnc1)NC(=O)OC1C2CC3CC(C2)CC1C3` (stereo partly shown) [drawing 32 (H H CH2 OCO2 i-Bu H H)], for which the inhibitory constant (Ki) was found to be 3 µM.

Regarding `CC(Cc1ccc2ccccc2n1)(NC(=O)OC1C2CC3CC(C2)CC1C3)C(=O)N[C@H](CO)Cc1ccccc1` (stereo partly shown) [drawing 36 (Diast I)], the inhibition constant Ki stood at 0.41 µM.

As to `CC(Cc1ccc2ccccc2n1)(NC(=O)OC1C2CC3CC(C2)CC1C3)C(=O)NCCc1ccccc1` (stereo not shown) [drawing 36 (H H H H H)], the inhibition constant Ki was determined as 0.4 µM.

Regarding `CC(Cc1n[nH]c2ccccc12)(NC(=O)OC1C2CC3CC(C2)CC1C3)C(=O)N[C@H](CO)Cc1ccccc1` (stereo partly shown) [drawing 38 (H H CH2 OH H H)], the inhibitory constant (Ki) is 0.069 µM.

For the compound `CC(Cc1n[nH]c2ccccc12)(NC(=O)OC1C2CC3CC(C2)CC1C3)C(=O)NCCc1ccccc1` (stereo not shown) [drawing 38 (H H H H H)], the Ki came to 0.1 µM.

`CC(Cc1ccnc2ccccc12)(NC(=O)OC1C2CC3CC(C2)CC1C3)C(=O)N[C@H](CO)Cc1ccccc1` (stereo partly shown) [drawing 40 (H H CH2 OH H H)]: the Ki was found to be 0.129 µM.

In the case of `CC(Cc1ccnc2ccccc12)(NC(=O)OC1C2CC3CC(C2)CC1C3)C(=O)NCCc1ccccc1` (stereo not shown) [drawing 40 (H H H H H)], the Ki is 0.262 µM.

`CC(Cc1ccc2ccccc2n1)(NC(=O)OC1C2CC3CC(C2)CC1C3)C(=O)NC(CO)Cc1ccccc1` (stereo not shown) [drawing 43 (H H CH2 OH H H)]: the inhibitory constant (Ki) stood at 0.402 µM.

In the case of `CC(Cc1csc2ccccc12)(NC(=O)OC1C2CC3CC(C2)CC1C3)C(=O)N[C@H](CO)Cc1ccccc1` (stereo partly shown) [drawing 47 (H H CH2 OH H H)], the inhibition constant (Ki) is 0.455 µM.

As to `CC(Cc1csc2ccccc12)(NC(=O)OC1C2CC3CC(C2)CC1C3)C(=O)NCCc1ccccc1` (stereo not shown) [drawing 47 (H H H H H)], the Ki was 0.76 µM.

With `CC(Cc1n[nH]c2ccccc12)(NC(=O)OC1C2CC3CC(C2)CC1C3)C(=O)NCC(NC(=O)CCC(=O)O)c1ccccc1` (stereo not shown) [drawing 53 (H H H H NHCOCH2 CH2 COOH)], the inhibitory constant (Ki) stood at 0.096 µM.

For the compound `CC(Cc1n[nH]c2ccccc12)(NC(=O)OC1C2CC3CC(C2)CC1C3)C(=O)NCC(c1ccccc1)N1C(=O)CCC1=O` (stereo not shown) [drawing 53/drawing 54 (Diast II)], the inhibition constant (Ki) was 0.22 µM.

Take `Cc1[nH]cc(CC(C)(NC(=O)OC2C3CC4CC(C3)CC2C4)C(=O)NC(CO)C(O)c2ccccc2)c1C` (stereo not shown) [drawing 56 (H H CH2 OH H OH)]: the Ki turned out to be 3 µM.

Turning to `CC(Cc1ncc2ccccn12)(NC(=O)OC1C2CC3CC(C2)CC1C3)C(=O)N[C@@H](CO)[C@@H](O)c1ccccc1` (stereo partly shown) [drawing 57 (H H CH2 OH H OH)], the inhibition constant Ki amounted to 0.75 µM.

For `CC(Cc1ncc2ccccn12)(NC(=O)OC1C2CC3CC(C2)CC1C3)C(=O)NCCc1ccccc1` (stereo not shown) [drawing 57 (H H H H H)], the inhibition constant (Ki) was found to be 0.93 µM.
